Results from publication PMC8533176, “1,5-Benzodiazepin-2(3H)-ones: In Vitro Evaluation as Antiparkinsonian Agents” (Antioxidants, 2021).

Assays:
[1] = system: SH-SY5Y cells; experiment: Intracellular GSH recovery (monochlorobimane); assay type: cell-based, human; conditions: H2O2 250 µM 24 h; 5, 10 and 20 µM
Procedure: For intracellular GSH determination studies, the method of Senft et al. was used. In summary, 3 × 10^3 SH-SY5Y cells were seeded in 96-well culture black clear bottom plates and after 24 h were treated with the test compound for an additional 24 h. Then, they were exposed to H2O2 for 24 h. After the incubation period, cells were loaded with 30 µM mClB and incubated at 37 °C for 30 min in a CO2 incubator as described by Sebastia et al.. At the end of the mClB incubation period, fluorescence was measured with a Varioskan microplate reader at λex = 405 nm and λem = 475. Results are expressed as the percentage of the fluorescence increase compared with that of the control. Experiments were performed four times in triplicate.

[2] = system: SH-SY5Y cells; experiment: Calcein-AM cell viability assay under H2O2; assay type: cell-based, human; conditions: H2O2 250 µM 24 h; 5, 10, 20, and 40 µM; Figure 12
Procedure: Calcein-AM is a fluorescence-based cell viability assay. Calcein-acetoxymethyl (AM) is a non-fluorescent compound that enters the cells where intracellular esterases hydrolyze the acetoxymethyl group. The fluorescent calcein is retained in the living cells, and it can be detected at λex = 495 and λem = 550 nm. After treatment, all the samples were washed with PBS and incubated with 2 μM calcein-AM for 30 min at 37 °C, 5% CO2, and protected from light. The fluorescence was measured in a Varioskan microplate reader (Thermo Fisher Scientific, Vantaa, Finland) with λex = 490 and λem = 520 nm filters. Cell viability was calculated from samples treated with 1% Triton X-100 for 30 min at 37 °C, 5% CO2.
Calcein-AM is a membrane permeant, not a fluorescent compound. Only live cells with intact plasma membrane have esterases that hydrolyze the compound into the green fluorescent dye calcein, which is retained in the cytoplasm. The fluorescent signal obtained is proportional to the number of living cells in the sample. […] Microscopy images in Figure S3 show the neuroprotection activity observed with Calcein-AM for derivative 18.

[3] = system: diffSH-SY5Y cells; experiment: Neuroprotection in differentiated SH-SY5Y cells, MTT; assay type: cell-based, human; conditions: H2O2 500 µM 24 h; 0, 2, 5, 10, 20, and 40 µM 24 h before
[4] = Apoptosis and necrosis by flow cytometry (Annexin V-PE/7-AAD); conditions: human, SH-SY5Y cells
[5] = system: SH-SY5Y cells; experiment: as above; conditions: 10 and 20 µM 24 h, then H2O2 1 mM 4 h
[6] = system: SH-SY5Y cells; experiment: Resazurin cell viability assay under H2O2; assay type: cell-based, human; conditions: H2O2 250 µM 24 h; Figure 10B
[7] = Ferric reducing antioxidant power (FRAP) assay; assay type: biochemical; parameters: FRAP Assay Trolox Equivalents: unit not given here
Procedure: FRAP reagent was prepared by mixing 10 mL of 300 mM acetate buffer with 1 mL of 10 mM 2,4,6-tripyridyl-S-triazine (TPTZ) in HCl 40 mM and 1mL of FeCl3·6H2O 20 mM. […] Trolox was used as assay control.

[8] = system: SH-SY5Y cells; experiment: Mitochondrial superoxide levels (MitoSOX); assay type: cell-based, human; conditions: H2O2 250 µM; compounds 24 h before
Procedure: Mitochondrial superoxide levels were measured with MitoSOX red (3,8-phenanthridinediamine, 5-(60-triphenylphosphoniumhexyl)-5,6-dihydro-6-phenyl) from Molecular Probes (Thermo Fisher Scientific, 29851Willow Creek Road, Eugene, OR, USA). After SH-SY5Y cell treatment in 96-well culture black clear bottom plates, the medium was removed and cells were washed with PBS and afterward, MitoSOX red (final concentration of 5 µM) in 200 µL of PBS was added and incubated for 20 min at 37 °C. After incubation, the cells were washed with warm PBS buffer, and fluorescence was measured at 510 nm excitation/640 nm emission wavelengths in a Varioskan microplate reader (Thermo Fisher Scientific, Vantaa, Finland).

[9] = system: SH-SY5Y cells; experiment: Cytotoxicity, MTT assay, SH-SY5Y; assay type: cell-based; conditions: Homo sapiens, MTT, cytotoxicity, read-out: SH-SY5Y IC50
How it was run: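 Cells treated with 5–200 µM compound (DMSO vehicle, four replicates) after overnight attachment. Viability read by MTT reduction (2 h, 37 °C, dark; formazan in DMSO, A570) relative to vehicle controls; IC50 from dose–response regression.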

[10] = Chemical reactivity with H2O2; assay type: physicochemical; conditions: H2O2 500 µM, 37 °C, 4 h, DMEM:F12 without cells
Procedure: In our case, before running the protection experiments under oxidative stress conditions, we carried out experiments to assess the potential reactivity of compounds 9, 11, 13, and 18 at four different concentrations (5, 10, 20, and 40 µM) with H2O2 500 µM at 37 °C for 4 h in DMEM:F12 (without phenol red, FBS, and cells). Curcumin was used as a control compound.

Which “intracellular GSH recovery” value [1] does the source give for `O=C1CC(c2ccccc2)=Nc2ccccc2N1` [Compound 18, 4-Phenyl-1H-1,5-benzodiazepin-2(3H)-one] here?
Its value is 18–20%.

And the “Neuroprotection, Calcein-AM cell counting” value [2]?
Its value is “statistically significant neuroprotectant activity”.

What about the “Neuroprotection, diffSH-SY5Y cell viability (MTT)” value [3] of the same compound?
The value was “dose-dependent neuroprotectant activity”.

What about the viability at 24 h, 10 µM [4] of the same compound?
Its viability at 24 h, 10 µM is 26.6%.

And the viability at 24 h, 20 µM [4]?
Its viability at 24 h, 20 µM is 28.1%.

And the “Effect on apoptotic cell populations” value [5]?
Its value is “reduced the number of late apoptotic cells”.

And the “Neuroprotection, cell viability (resazurin)” value [6]?
Its value is “significant protection against the oxidative stress insult”.

What about the “FRAP Assay Trolox Equivalents” value [7] of the same compound?
The value was 0.89.

And the “FRAP Assay Antioxidant Capacity (%) at 100 uM” value ([7]; compound at 100 uM)?
Its value is 45.7%.

And the “FRAP Assay Antioxidant Capacity (%) at 200 uM” value ([7]; compound at 200 uM)?
The value was 65.1%.

And the “Reduction in mitochondrial superoxide levels” value [8]?
The value was “reduce mitochondrial superoxide levels in a dose-dependent manner”.

And the IC50 [9]?
Its IC50 is over 250 µM.

What about the “Reaction with H2O2” value [10] of the same compound?
Its value is “did not show any significant reaction”.
